From patent US20130204033A1, “ANTIPROLIFERATIVE COMPOUNDS, CONJUGATES THEREOF, METHODS THEREFOR, AND USES THEREOF” (Medarex, Inc., priority 2009, published 2013)
Where two headings read alike, the source gives them in different places.

Assays:
Assay type in all cases: cell-based, human
RPMI-8226 = assay: 3H thymidine proliferation assay, RPMI-8226
How it was run: (§1)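 Cells seeded at 1.0×10^4 cells/well for 3 h, then exposed to 1:3 serial dilutions of free compounds or conjugates for 72 h. 1.0 μCi ^3H-thymidine per well was added for the last 24 h, and incorporation was read by scintillation counting. EC50 is the concentration reducing proliferation by 50%.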

Raji = assay: ATP luminescence proliferation assay, Raji
Procedure: (§2) This example generally describes the procedures used to assay the antiproliferative activity of compounds of this invention or their conjugates. Human tumor cell lines were obtained from the American Type Culture Collection (ATCC), P.O. Box 1549, Manassas, Va. 20108, USA, and cultured according to instruction from the ATCC. Cells were seeded at 1.0×10^3 or 1.0×10^4 cells/well in 96-well plates for 3 h for ATP assays or ^3H thymidine assays, respectively. 1:3 serial dilutions of free (unconjugated) compounds or their conjugates were added to the wells. Plates were allowed to incubate for 24 to 72 h. The ^3H thymidine plates were pulsed with 1.0 μCi of ^3H-thymidine per well for the last 24 hours of the total incubation period, harvested, and read on a Top Count Scintillation Counter (Packard Instruments, Meriden, Conn.). ATP levels in the ATP plates were measured using the […]-GLO® Luminescent Cell Viability kit following the manufacturer's manual and read on a GLOMAX® 20/20 luminometer (both from Promega, Madison, Wis., USA). The EC50 values—the concentration at which an agent inhibits or reduces cell proliferation by 50% —were determined using PRISM™ software, version 4.0 (GraphPad Software, La Jolla, Calif., USA).
(§3) Using the ^3H thymidine or the ATP luminescence assay, or both, the activities of compounds of this invention were assayed against the following cancer cell lines: HCT-15 (colorectal cancer, multi-drug resistant (MDR)); Hep3B (liver cancer); LNCaP (prostate cancer, androgen receptor positive (AR^+)); MDA-MB-231 (breast cancer, estrogen receptor, progesterone receptor, and Her2 negative (triple negative)); A2058 (melanoma); U-87 MG (glioblastoma); NCI-H460 (NSCLC); A549 (NSCLC); HPAC (pancreatic cancer, primary); PC3 (prostate cancer, AR); BT474 (breast cancer, Her2 highly positive (Her2hi)); SKOV3 (ovarian cancer, Her2hi); 786-O (renal cancer); UO-31 (renal cancer, MDR); NCI-H740 (SCLC); DMS53 (SCLC); SK-BR3 (breast cancer, Her2hi); ZR-75 (breast cancer, estrogen receptor positive); OVCAR3 (ovarian cancer); HL-60 (APL); OVCAR8/Adr (ovarian cancer, MDR); CEM-Cl (ALL); Nomo-1 (AML); RPMI-8226 (MM)); Raji (lymphoma); SW-480 (colorectal cancer, metastatic); SW-620 (colorectal cancer); and H226 (lung cancer). (Not all compounds were assayed against all cell lines.)
(§4) Table 3 provides the data for the ATP luminescence proliferation assays, with an incubation period of 48, 72, or 96 h, as noted.

SW-620 = assay: ATP luminescence proliferation assay, SW-620
Procedure: as §2, §3, §4

HCT-15 [1] = assay: 3H thymidine proliferation assay, HCT-15
How it was run: as §1

OVCAR3 [2] = assay: 3H thymidine proliferation assay, OVCAR3
How it was run: as §1

OVCAR8 = assay: 3H thymidine proliferation assay, OVCAR8
How it was run: as §1

HCT-15 [3] = assay: ATP luminescence proliferation assay, HCT-15
How it was run: (§5)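 Antiproliferative EC50 values derive from luminescent ATP measurement in human tumor cells exposed for 48, 72 or 96 h to 1:3 serial dilutions of free compounds or their conjugates, with 1.0×10^3 cells seeded per well 3 h beforehand.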

786-O [4] = assay: ATP luminescence proliferation assay, 786-O
How it was run: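 Read-out: luminescent ATP cell viability after 48, 72 or 96 h incubation, as noted, with 1:3 serial dilutions of unconjugated compounds or their conjugates. Plating was 1.0×10^3 cells/well, 3 h before dosing. EC50 = concentration giving 50% inhibition of proliferation.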

Hep3B = assay: ATP luminescence proliferation assay, Hep3B
Procedure: as §2, §3, §4

HPAC [5] = assay: ATP luminescence proliferation assay, HPAC
Procedure: as §2, §3, §4

HPAC [6] = assay: 3H thymidine proliferation assay, HPAC
How it was run: as §1

OVCAR3 [7] = assay: ATP luminescence proliferation assay, OVCAR3
How it was run: as §5

Nomo-1 = assay: ATP luminescence proliferation assay, Nomo-1
Procedure: as §2, §3, §4

786-O [8] = assay: 3H thymidine proliferation assay, 786-O
How it was run: as §1

NCI-H460 = assay: ATP luminescence proliferation assay, NCI-H460
Procedure: as §2, §3, §4

BT474 = assay: 3H thymidine proliferation assay, BT474
How it was run: as §1

SKOV3 = assay: 3H thymidine proliferation assay, SKOV3
How it was run: as §1

MDA-MB-231 = assay: 3H thymidine proliferation assay, MDA-MB-231
How it was run: as §1

[9] = Homo sapiens, RPMI-8226, read-out: EC50, RPMI-8226, 3H thymidine method, 72 h incubation
[10] = Homo sapiens, 72 h, read-out: EC50 Raji (72 h), ATP luminescence, Raji, 72 h incubation
[11] = Homo sapiens, SW-620, 96 h, read-out: EC50 SW-620 (96 h), ATP luminescence, SW-620, 96 h incubation
[12] = Homo sapiens, HCT-15, read-out: EC50, HCT-15, 3H thymidine method, 72 h incubation
[13] = Homo sapiens, OVCAR-3, read-out: EC50, OVCAR3, 3H thymidine method, 72 h incubation
[14] = Homo sapiens, OVCAR-8, read-out: EC50, OVCAR8, 3H thymidine method, 72 h incubation
[15] = Homo sapiens, HCT-15, 72 h, read-out: EC50 HCT-15 (72 h), ATP luminescence, HCT-15, 72 h incubation
[16] = Homo sapiens, 786-0, 72 h, read-out: EC50 786-O (72 h), ATP luminescence, 786-O, 72 h incubation
[17] = Homo sapiens, 48 h, read-out: EC50 Hep3B (48 h), ATP luminescence, Hep3B, 48 h incubation
[18] = Homo sapiens, 72 h, read-out: EC50 HPAC (72 h), ATP luminescence, HPAC, 72 h incubation
[19] = Homo sapiens, HPAC, read-out: EC50, HPAC, 3H thymidine method, 72 h incubation
[20] = Homo sapiens, OVCAR-3, 48 h, read-out: EC50 OVCAR3 (48 h), ATP luminescence, OVCAR3, 48 h incubation
[21] = Homo sapiens, NOMO-1, 48 h, read-out: EC50 Nomo-1 (48 h), ATP luminescence, Nomo-1, 48 h incubation
[22] = Homo sapiens, 786-0, read-out: EC50, 786-O, 3H thymidine method, 72 h incubation
[23] = Homo sapiens, NCI-H460, 72 h, read-out: EC50 NCI-H460 (72 h), ATP luminescence, NCI-H460, 72 h incubation
[24] = Homo sapiens, BT-474, read-out: EC50, BT474, 3H thymidine method, 72 h incubation
[25] = Homo sapiens, SK-OV-3, read-out: EC50, SKOV3, 3H thymidine method, 72 h incubation
[26] = Homo sapiens, MDA-MB-231, read-out: EC50, MDA-MB-231, 3H thymidine method, 72 h incubation

CC[C@H](C)[C@H](NC(=O)[C@H]1CCCCN1C)C(=O)N(C)[C@H](C[C@@H](OC(C)=O)c1nc(C(=O)N[C@@H](Cc2ccc(N)cc2)CC(C)C(=O)O)cs1)C(C)C (stereo partly drawn) [Compound 36]
EC50 (RPMI-8226; [9]): 48 nM
EC50 (Raji; [10]): 24 nM
EC50 (SW-620; [11]): 45 nM
EC50 (HCT-15 [1]; [12]): 64 nM
EC50 (OVCAR3 [2]; [13]): > 100 nM
EC50 (OVCAR8; [14]): > 100 nM
EC50 (HCT-15 [3]; [15]): 96 nM
EC50 (786-O [4]; [16]): 183 nM
EC50 (Hep3B; [17]): 86 nM
EC50 (HPAC [5]; [18]): 2.9 nM
EC50 (HPAC [6]; [19]): 83 nM
EC50 (OVCAR3 [7]; [20]): > 300 nM
EC50 (Nomo-1; [21]): 34 nM
EC50 (786-O [8]; [22]): > 100 nM
EC50 (NCI-H460; [23]): 16 nM
EC50 (BT474; [24]): > 100 nM
EC50 (SKOV3; [25]): 32 nM
EC50 (MDA-MB-231; [26]): > 100 nM

CC[C@H](C)[C@H](NC(=O)[C@H]1CCCCN1C)C(=O)N(C)[C@H](C[C@@H](OC)c1nc(C(=O)N[C@@H](Cc2ccc(N)cc2)CC(C)C(=O)O)cs1)C(C)C (stereo partly drawn) [Compound 51]
EC50 (RPMI-8226; 3H thymidine method, 72 h incubation, read-out: EC50, RPMI-8226): 2.2 nM
EC50 (Raji; ATP luminescence, 72 h incubation, read-out: EC50 Raji (72 h)): 5 nM
EC50 (SW-620; ATP luminescence, SW-620, 96 h incubation, read-out: EC50 SW-620 (96 h)): 6.4 nM
EC50 (HCT-15 [1]; 3H thymidine method, 72 h incubation, read-out: EC50, HCT-15): 101 nM
EC50 (OVCAR3 [2]; 3H thymidine method, 72 h incubation, read-out: EC50, OVCAR3): 2.5 nM
EC50 (OVCAR8; 3H thymidine method, 72 h incubation, read-out: EC50, OVCAR8): 20 nM
EC50 (HCT-15 [3]; ATP luminescence, HCT-15, 72 h incubation, read-out: EC50 HCT-15 (72 h)): 93 nM
EC50 (786-O [4]; ATP luminescence, 786-O, 72 h incubation, read-out: EC50 786-O (72 h)): 19 nM
EC50 (Hep3B; ATP luminescence, 48 h incubation, read-out: EC50 Hep3B (48 h)): 3.8 nM
EC50 (HPAC [5]; ATP luminescence, 72 h incubation, read-out: EC50 HPAC (72 h)): 4.5 nM
EC50 (HPAC [6]; 3H thymidine method, 72 h incubation, read-out: EC50, HPAC): 6.4 nM
EC50 (OVCAR3 [7]; ATP luminescence, OVCAR3, 48 h incubation, read-out: EC50 OVCAR3 (48 h)): 5.5 nM
EC50 (Nomo-1; ATP luminescence, Nomo-1, 72 h incubation, read-out: EC50 Nomo-1 (72 h)): 7.4 nM
EC50 (786-O [8]; 3H thymidine method, 72 h incubation, read-out: EC50, 786-O): 10 nM
EC50 (NCI-H460; ATP luminescence, NCI-H460, 72 h incubation, read-out: EC50 NCI-H460 (72 h)): 14 nM
EC50 (BT474; 3H thymidine method, 72 h incubation, read-out: EC50, BT474): 30 nM
EC50 (SKOV3; 3H thymidine method, 72 h incubation, read-out: EC50, SKOV3): 4.4 nM
EC50 (MDA-MB-231; 3H thymidine method, 72 h incubation, read-out: EC50, MDA-MB-231): 8.7 nM

CC[C@H](C)[C@H](NC(=O)[C@H]1CCCCN1C)C(=O)N(COC(=O)CC(C)C)[C@H](C[C@@H](OC(C)=O)c1nc(C(=O)N[C@@H](Cc2ccc(N)cc2)CC(C)C(=O)O)cs1)C(C)C (stereo partly drawn) [Compound 54]
EC50 (RPMI-8226; [9]): 0.36 nM
EC50 (Raji; [10]): 1.2 nM
EC50 (SW-620; [11]): 1.1 nM
EC50 (HCT-15 [1]; [12]): 0.44 nM
EC50 (OVCAR3 [2]; [13]): 3.9 nM
EC50 (OVCAR8; [14]): 2.1 nM
EC50 (HCT-15 [3]; [15]): 2.6 nM
EC50 (786-O [4]; [16]): 2.6 nM
EC50 (Hep3B; [17]): 1.5 nM
EC50 (HPAC [5]; [18]): 0.96 nM
EC50 (HPAC [6]; [19]): 0.83 nM
EC50 (OVCAR3 [7]; [20]): > 100 nM
EC50 (Nomo-1; [21]): 3.1 nM
EC50 (786-O [8]; [22]): 6.9 nM
EC50 (NCI-H460; [23]): 1.6 nM
EC50 (BT474; [24]): 8.8 nM
EC50 (SKOV3; [25]): 0.34 nM
EC50 (MDA-MB-231; [26]): 1.6 nM
